Source: ChEMBL document CHEMBL4831532
Active and inactive are the calls of the source. The rule behind the calls is not given here.

Assays:
[1] = tested on: SARS-CoV-2; test: microbe, parasite or virus in culture; conditions: Severe acute respiratory syndrome coronavirus 2, JPN/TY/WK-251, Vero C1008, 72 h
[2] = tested on: SARS-CoV-2; assay type: functional
[3] = tested on: SARS-CoV-2; assay type: functional, organism-based; conditions: Severe acute respiratory syndrome coronavirus 2; JPN/TY/WK-251; Vero E6; dose 10.0 µM, time 3.0 day
[4] = tested on: SARS-CoV-2; assay type: functional, Severe acute respiratory syndrome coronavirus 2, JPN/TY/WK-251, Vero E6; conditions: dose 1-100 µM; time 72 hrs; at 1 to 100 µM
[5] = Inhibition of SARS-CoV-2 3CL protease using HiyteFluor-488ESATL-QSGLRKAK-(QXL)-NH2 fluorogenic peptide as substrate preincubated for 15 mins followed by substrate addition and measured after 30 mins by FRET assay; design: species or system Severe acute respiratory syndrome coronavirus 2
[6] = tested on: Vero C1008; test: Cytotoxicity against African green monkey Vero E6 cells incubated for 3 days; assay type: cell-based; conditions: chlorocebus sabaeus, vero c1008, 72 h; time 3 day
[7] = Binding affinity to SARS-CoV-2 3CL protease; design: species or system Severe acute respiratory syndrome coronavirus 2

Row | Compound | EC50 [1] [µM] | further results
1 | C=CCc1cn(CC=C)c2cccc(C(=O)Oc3cncc(Cl)c3)c12 | 11.5 | 
2 | O=C(Oc1cncc(Cl)c1)c1cccc2[nH]cnc12 | > 100 | 
3 | Cc1c[nH]c2cccc(C(=O)Oc3cncc(Cl)c3)c12 | 56.7 | 
4 | O=C(Nc1cncc(Cl)c1)c1cccc2[nH]ccc12 | > 100 | 
5 | Cc1ccc2[nH]ccc2c1C(=O)Oc1cncc(Cl)c1 | > 100 | 
6 | O=C(Oc1cncc(Cl)c1)c1cccc2c1OCCN2 | > 100 | 
7 | Cc1ncc(OC(=O)c2cccc3[nH]cnc23)cc1Cl | 57 | 
8 | CCC(CC)COC(=O)[C@H](C)N[P@](=O)(OC[C@H]1O[C@@](C#N)(c2ccc3c(N)ncnn23)[C@H](O)[C@@H]1O)Oc1ccccc1 |  | Activity ([2]; Severe acute respiratory syndrome coronavirus 2, JPN/TY/WK-251, Vero E6, dose 100.0 µM, time 3.0 day): Active; Activity [3]: Active; Activity [4]: 100%
9 | O=C(Oc1cncc(Cl)c1)c1cccc2c1CCN2 | 15 | IC50 [5]: 0.32 µM; Activity ([2]; dose 100 µM, time 3 day): 100%; Activity [3]: Active
10 | Cc1cc(C(=O)Oc2cncc(Cl)c2)c2cc[nH]c2c1 | 3.1 | 
11 | O=C(Oc1cncc(Cl)c1)c1cccc2ncoc12 | > 100 | 
12 | O=C(Oc1cncc(Cl)c1)c1cccc2[nH]ccc12 |  | Activity ([2]; dose 100 µM, time 3 day): 100%; Activity [3]: Active; Activity [4]: 100%; CC50 [6]: > 100 µM
13 | Cc1ncc(OC(=O)c2cccc3[nH]ccc23)cc1Cl | 30 | 
14 | C=CCn1ccc2c(C(=O)Oc3cncc(Cl)c3)cccc21 | 15 | 
15 | COc1cccc2[nH]c(C(=O)N[C@@H](CC(C)C)C(=O)N[C@@H](C[C@@H]3CCNC3=O)C(=O)c3nc4ccccc4s3)cc12 |  | Ki [7]: 0.0176 µM
16 | Cc1ncc(Cl)cc1OC(=O)c1cccc2[nH]ccc12 | > 100 | IC50 [5]: > 100 µM
17 | Cc1c(Cl)cncc1OC(=O)c1cccc2[nH]ccc12 | 19.3 | 
18 | O=C(Oc1cncc(Cl)c1)c1ccc2c(ccn2S(=O)(=O)c2cccc([N+](=O)[O-])c2)c1 | 69.8 | 
19 | O=C(Oc1cncc(Cl)c1)c1ccc2[nH]ccc2c1 | 43.7 | 
20 | Cc1nc2c(C(=O)Oc3cncc(Cl)c3)cccc2[nH]1 | 57.1 | 
21 | COc1cccc2[nH]c(C(=O)Oc3cncc(Cl)c3)cc12 | 8.1 | 
22 | O=C(Oc1cncc(Cl)c1)c1cc(F)cc2[nH]ccc12 | 14 | 
23 | O=C(Nc1cccc(Cl)c1)c1cccc2[nH]ccc12 | > 100 | IC50 [5]: 100 µM
